Data as given in PMC4008261, “Rewiring of regenerated axons by combining treadmill training with semaphorin3A inhibition” (Molecular Brain, 2014).

Experiments:
[1] = system: SCT adult rats; assay: Kinematic analysis before and after re-transection; type: in vivo, rat
Method: A total of 53 adult female Sprague-Dawley rats (200-250 g, 10-12 weeks old) were used in this study (3 rats died during the experimental period and were excluded from the statistical analysis). All procedures were approved by the experimental animal care committee of Keio University, School of Medicine and Murayama Medical Center (approval #12-8). All rats were anesthetized with an intraperitoneal injection of ketamine (100 mg/kg)/xylazine (10 mg/kg). The spinal cord at the level of the T10 lamina was exposed by T10 laminectomy, and the dorsal dura mater was opened. The exposed spinal cord was cut along the inner edge of the vertebra with a sharp micro-scissor. […] Kinematic data were recorded using similar procedures prior to re-transection surgery (on the same day) and on the day following re-transection surgery. […]
To evaluate the locomotor capability of SCT rats in detail, the aforementioned robotic device was employed. Each robotic arm tracked the two-dimensional movement of the ankle, and the trajectory of the ankle movement was then recorded on a computer for kinematic analyses. […] Briefly, the ankle trajectory in each plane was recorded by the robotic arm and a computer. […] All kinematic characteristics were obtained when TO and PC were identified; as a result, parameters such as the duration phase, the swing phase of the step cycle and the length and height of the step were calculated. […]

[2] = system: Transcription response, NF-kB; assay: Pharmacological profile: transcription response; type: cell-based
Excerpt: (§1) Table 1 Pharmacological profile of SM-345431 (part 1) | column: IC50 (μm)

[3] = system: Transcription response, NF-AT; assay: Pharmacological profile: transcription response; type: cell-based
Excerpt: as §1

[4] = Stability in a silicone sheet; type: physicochemical; conditions: compared with SM-216289
[5] = system: SCT adult rats; assay: Axonal regeneration after SCT (GAP43, 5-HT/GFAP immunostaining, BDA tracing); type: in vivo, rat; conditions: for number of GAP43 axons versus control: especially 1 mm caudal to the injury epicenter
Method: Rats were randomly divided into the following three experimental groups: 1) untrained + placebo, 2) untrained + SM-345431 and 3) trained + SM-345431. SCT was performed, and SM-345431 or placebo was administered at the lesion site via the newly developed DDS, which is described in detail below. Starting 1 week post-injury, treadmill training commenced with a BSS. Kinematic tests were performed monthly for 3 months after SCT using a rodent robotic device (Rodent robot 3000, Robomedica Inc.) that primarily assessed the performance of plantar stepping on a treadmill. Treadmill training was continued throughout the experimental period.
A total of 53 adult female Sprague-Dawley rats (200-250 g, 10-12 weeks old) were used in this study (3 rats died during the experimental period and were excluded from the statistical analysis). All procedures were approved by the experimental animal care committee of Keio University, School of Medicine and Murayama Medical Center (approval #12-8). All rats were anesthetized with an intraperitoneal injection of ketamine (100 mg/kg)/xylazine (10 mg/kg). The spinal cord at the level of the T10 lamina was exposed by T10 laminectomy, and the dorsal dura mater was opened. The exposed spinal cord was cut along the inner edge of the vertebra with a sharp micro-scissor. Two more cuts were made at the gap of the transected spinal cord by a scalpel to ensure total transection. SM-345431 or placebo was administered to the transected site via the newly developed DDS as described in detail below (Figure 1G-I). After these procedures, the back muscles and skin were closed. Rats were kept warm in an incubator (37°C) after surgery. To prevent dehydration in the rats, 10 ml of saline was subcutaneously injected daily until day 7. Ampicillin (0.4 g/kg) was also injected intramuscularly daily to prevent infection until day 7. The bladder was evacuated manually until autonomous emptying of the bladder was achieved. The re-transection procedure was performed at the same level as the primary SCT (15 rats total; 5 rats from each group). Kinematic data were recorded using similar procedures prior to re-transection surgery (on the same day) and on the day following re-transection surgery. For CST tracing, 10% BDA was injected as follows. Nine weeks after SM-345431 or placebo administration, BDA (10000 MW, Molecular Probes) was injected into six different sites of the sensorimotor cortices of the rats under general anesthesia (site 1: 2.0 mm lateral, 0 mm to bregma; site 2: 2.0 mm lateral, 2 mm posterior to bregma; site 3: 2.0 mm lateral, 4 mm posterior to bregma; site 4: 4 mm lateral, 0 mm to bregma; site 5: 4 mm lateral, 2 mm posterior to bregma and site 6: 4 mm lateral, 4 mm posterior to bregma). For each site, injections were performed at two different depths (1.2 mm and 1.6 mm), and 3 μl of 10% BDA was injected at a rate of 0.15 μl/min using a micro-injector. Three weeks after the BDA injection, rats were sacrificed and used for immunohistochemistry.
A novel matrix silicone preparation was developed to allow continuous drug delivery at the site of injury. The amount of drug released from this matrix silicone preparation in vitro was measured as described in Figure 1. Matrix silicone sheets (0.3 mm thick) containing SM-345431 were trimmed into 3-mm-square pieces to fit into the opened dura. After SCT, one piece of silicone sheet was placed on the transected spinal cord gap so that it could act on the spinal cord directly.
Twelve weeks after SCT, rats were deeply anaesthetized by an intraperitoneal injection of 14% chloral hydrate and then perfused intracardially with 4% paraformaldehyde (PFA) in 0.1 M phosphate-buffered saline (PBS). The spinal cord tissues were dissected and post-fixed in 4% PFA (24 h) and placed in 10% sucrose in 0.1 M PBS (24 h) followed by 30% sucrose in 0.1 M PBS (24 h). All the rats other than 3 rats died during the experimental period were used for the histological analysis. […]

[6] = SM-345431 combined with treadmill training
[7] = SM-345431 via silicone DDS alone

## CC(=O)c1cc2c(=O)c3c(C(=O)O)c(O)c(O)cc3oc2c(C(C)=O)c1-c1coc2cc(O)c(O)c(C(=O)O)c2c1=O [SM-345431, Vinaxanthone]
[1]; SM-345431 alone, re-transection 12 weeks after the initial injury
  step cycle area after re-transection: tended to be attenuated
[1]; SM-345431 combined with treadmill training, average step height P < 0.01, maximum step height P < 0.05
  step ability after re-transection: greater attenuations of step ability were observed
[2]
  IC50: > 10 µM
[3]
  IC50: > 10 µM
[4]
  stability in a silicone sheet: better stability in a silicone sheet than SM-216289
[5]; [6]
  5-HT-positive axons penetrating the GFAP-negative scar tissue versus control: significantly more 5-HT-positive axons penetrated the GFAP-negative scar tissue area
  CST axon regeneration (BDA tracing): no clear CST regeneration beyond the lesion epicenter was observed
  number of GAP43 axons versus control: significantly increased
[5]; [7]
  5-HT-positive axons penetrating the GFAP-negative scar tissue versus control: significantly more 5-HT-positive axons penetrated the GFAP-negative scar tissue area
  CST axon regeneration (BDA tracing): no obvious CST regeneration beyond the lesion epicenter was observed
  number of GAP43 axons versus control: significantly increased
